{"source": "PubChem BioAssay AID1963863", "about": "(Molecular Pharmacology Branch, DTP, NCI, 2024)", "tested_on": "931267-113-T-J1-PDC KRAS spheroid with HUVEC/MSC, viability", "assay": "Anticancer human tumor 931267-113-T-J1-PDC patient-derived colon adenocarcinoma cell line growth inhibition [KRAS2]", "conditions": "for IC50: curve of first compound; for viability, T/C: stronger effect = lower value", "procedure,_shortened": "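Combination screen of spheroid viability in tumor-cell co-cultures with endothelial (HUVEC) and mesenchymal stem cell stroma. Each agent was tested in half-log dilutions, topping at clinical Cmax or at 10 microM without a known Cmax.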", "data": [{"compound": "CN(C)C/C=C/C(=O)Nc1cc2c(Nc3ccc(F)c(Cl)c3)ncnc2cc1O[C@H]1CCOC1", "note": "+ C=CC(=O)N1CCN(c2nc(=O)n(-c3c(C)ccnc3C(C)C)c3nc(-c4c(O)cccc4F)c(F)cc23)C(C)C1;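 also: compound exposure lasted 7 days before the readout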;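 as to viability, T/C: 100% = DMSO vehicle control viability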", "values": [{"measurement": "IC50", "setting": "second compound 0.1 µM", "value": "> 100", "unit": "nM"}, {"measurement": "IC50", "setting": "second compound 0.316 µM", "value": "> 100", "unit": "nM"}, {"measurement": "IC50", "setting": "second compound 1 µM", "value": "> 100", "unit": "nM"}, {"measurement": "IC50", "setting": "second compound 3.16 µM", "value": "> 100", "unit": "nM"}, {"measurement": "IC50", "setting": "second compound 10 µM", "value": "> 100", "unit": "nM"}, {"measurement": "viability, T/C", "setting": "second compound 0.1 µM, first compound 0.000316 µM", "value": 103, "unit": "%"}, {"measurement": "viability, T/C", "setting": "second compound 0.1 µM, first compound 0.001 µM", "value": 91.6, "unit": "%"}, {"measurement": "viability, T/C", "setting": "second compound 0.1 µM, first compound 0.00316 µM", "value": 76.1, "unit": "%"}, {"measurement": "viability, T/C", "setting": "second compound 0.1 µM, first compound 0.01 µM", "value": 83.5, "unit": "%"}, {"measurement": "viability, T/C", "setting": "second compound 0.1 µM, first compound 0.0316 µM", "value": 115, "unit": "%"}, {"measurement": "viability, T/C", "setting": "second compound 0.1 µM, first compound 0.1 µM", "value": 117, "unit": "%"}, {"measurement": "viability, T/C", "setting": "second compound 0.316 µM, first compound 0.000316 µM", "value": 97.5, "unit": "%"}, {"measurement": "viability, T/C", "setting": "second compound 0.316 µM, first compound 0.001 µM", "value": 105, "unit": "%"}, {"measurement": "viability, T/C", "setting": "second compound 0.316 µM, first compound 0.00316 µM", "value": 95.1, "unit": "%"}, {"measurement": "viability, T/C", "setting": "second compound 0.316 µM, first compound 0.01 µM", "value": 96.1, "unit": "%"}, {"measurement": "viability, T/C", "setting": "second compound 0.316 µM, first compound 0.0316 µM", "value": 117, "unit": "%"}, {"measurement": "viability, T/C", "setting": "second compound 0.316 µM, first compound 0.1 µM", "value": 98.6, "unit": "%"}, {"measurement": "viability, T/C", "setting": "second compound 1 µM, first compound 0.000316 µM", "value": 110, "unit": "%"}, {"measurement": "viability, T/C", "setting": "second compound 1 µM, first compound 0.001 µM", "value": 121, "unit": "%"}, {"measurement": "viability, T/C", "setting": "second compound 1 µM, first compound 0.00316 µM", "value": 83.7, "unit": "%"}, {"measurement": "viability, T/C", "setting": "second compound 1 µM, first compound 0.01 µM", "value": 90.8, "unit": "%"}, {"measurement": "viability, T/C", "setting": "second compound 1 µM, first compound 0.0316 µM", "value": 84.9, "unit": "%"}, {"measurement": "viability, T/C", "setting": "second compound 1 µM, first compound 0.1 µM", "value": 96.5, "unit": "%"}, {"measurement": "viability, T/C", "setting": "second compound 3.16 µM, first compound 0.000316 µM", "value": 138, "unit": "%"}, {"measurement": "viability, T/C", "setting": "second compound 3.16 µM, first compound 0.001 µM", "value": 128, "unit": "%"}, {"measurement": "viability, T/C", "setting": "second compound 3.16 µM, first compound 0.00316 µM", "value": 117, "unit": "%"}, {"measurement": "viability, T/C", "setting": "second compound 3.16 µM, first compound 0.01 µM", "value": 95, "unit": "%"}, {"measurement": "viability, T/C", "setting": "second compound 3.16 µM, first compound 0.0316 µM", "value": 126, "unit": "%"}, {"measurement": "viability, T/C", "setting": "second compound 3.16 µM, first compound 0.1 µM", "value": 105, "unit": "%"}, {"measurement": "viability, T/C", "setting": "second compound 10 µM, first compound 0.000316 µM", "value": 146, "unit": "%"}, {"measurement": "viability, T/C", "setting": "second compound 10 µM, first compound 0.001 µM", "value": 138, "unit": "%"}, {"measurement": "viability, T/C", "setting": "second compound 10 µM, first compound 0.00316 µM", "value": 119, "unit": "%"}, {"measurement": "viability, T/C", "setting": "second compound 10 µM, first compound 0.01 µM", "value": 99.2, "unit": "%"}, {"measurement": "viability, T/C", "setting": "second compound 10 µM, first compound 0.0316 µM", "value": 110, "unit": "%"}, {"measurement": "viability, T/C", "setting": "second compound 10 µM, first compound 0.1 µM", "value": 108, "unit": "%"}]}]}
